In article PMC10174618, “Monoterpenoid aryl hydrocarbon receptor allosteric antagonists protect against ultraviolet skin damage in female mice” (Nature Communications, 2023):

Legend:
Assay in all cases: biochemical
Parameters in all cases: KINOMEscan scanMAX active site-directed competition binding assay, percent of control, 468 kinases
Conditions in all cases: competition binding, percent of control
ROCK2 = ROCK2 (Homo sapiens, UniProt O75116)
How it was run: (§1)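 Single-concentration screen (100 μM S-carvone) in a competition binding panel of 468 human kinases (KINOMEscan scanMAX); results given as percent of control, hit cutoff 35%.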

AURKA = AURKA (Homo sapiens, UniProt O14965)
AURKA, sequence (O14965 whole entry): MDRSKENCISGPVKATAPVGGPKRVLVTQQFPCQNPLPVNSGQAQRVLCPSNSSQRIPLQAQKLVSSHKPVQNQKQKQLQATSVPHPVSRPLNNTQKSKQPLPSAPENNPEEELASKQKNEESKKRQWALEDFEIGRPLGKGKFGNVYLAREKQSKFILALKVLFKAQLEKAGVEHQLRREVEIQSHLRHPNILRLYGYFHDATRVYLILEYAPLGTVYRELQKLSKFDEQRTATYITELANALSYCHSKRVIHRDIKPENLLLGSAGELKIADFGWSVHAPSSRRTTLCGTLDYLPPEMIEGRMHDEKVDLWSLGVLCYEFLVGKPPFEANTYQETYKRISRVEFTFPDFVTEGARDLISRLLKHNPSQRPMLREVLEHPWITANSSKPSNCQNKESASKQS
How it was run: as §1

WEE2 = WEE2 (Homo sapiens, UniProt P0C1S8)
How it was run: as §1

LIMK1 = LIMK1 (Homo sapiens, UniProt P53667)
How it was run: as §1

HIPK3 = HIPK3 (Homo sapiens, UniProt Q9H422)
HIPK3, sequence (Q9H422 whole entry): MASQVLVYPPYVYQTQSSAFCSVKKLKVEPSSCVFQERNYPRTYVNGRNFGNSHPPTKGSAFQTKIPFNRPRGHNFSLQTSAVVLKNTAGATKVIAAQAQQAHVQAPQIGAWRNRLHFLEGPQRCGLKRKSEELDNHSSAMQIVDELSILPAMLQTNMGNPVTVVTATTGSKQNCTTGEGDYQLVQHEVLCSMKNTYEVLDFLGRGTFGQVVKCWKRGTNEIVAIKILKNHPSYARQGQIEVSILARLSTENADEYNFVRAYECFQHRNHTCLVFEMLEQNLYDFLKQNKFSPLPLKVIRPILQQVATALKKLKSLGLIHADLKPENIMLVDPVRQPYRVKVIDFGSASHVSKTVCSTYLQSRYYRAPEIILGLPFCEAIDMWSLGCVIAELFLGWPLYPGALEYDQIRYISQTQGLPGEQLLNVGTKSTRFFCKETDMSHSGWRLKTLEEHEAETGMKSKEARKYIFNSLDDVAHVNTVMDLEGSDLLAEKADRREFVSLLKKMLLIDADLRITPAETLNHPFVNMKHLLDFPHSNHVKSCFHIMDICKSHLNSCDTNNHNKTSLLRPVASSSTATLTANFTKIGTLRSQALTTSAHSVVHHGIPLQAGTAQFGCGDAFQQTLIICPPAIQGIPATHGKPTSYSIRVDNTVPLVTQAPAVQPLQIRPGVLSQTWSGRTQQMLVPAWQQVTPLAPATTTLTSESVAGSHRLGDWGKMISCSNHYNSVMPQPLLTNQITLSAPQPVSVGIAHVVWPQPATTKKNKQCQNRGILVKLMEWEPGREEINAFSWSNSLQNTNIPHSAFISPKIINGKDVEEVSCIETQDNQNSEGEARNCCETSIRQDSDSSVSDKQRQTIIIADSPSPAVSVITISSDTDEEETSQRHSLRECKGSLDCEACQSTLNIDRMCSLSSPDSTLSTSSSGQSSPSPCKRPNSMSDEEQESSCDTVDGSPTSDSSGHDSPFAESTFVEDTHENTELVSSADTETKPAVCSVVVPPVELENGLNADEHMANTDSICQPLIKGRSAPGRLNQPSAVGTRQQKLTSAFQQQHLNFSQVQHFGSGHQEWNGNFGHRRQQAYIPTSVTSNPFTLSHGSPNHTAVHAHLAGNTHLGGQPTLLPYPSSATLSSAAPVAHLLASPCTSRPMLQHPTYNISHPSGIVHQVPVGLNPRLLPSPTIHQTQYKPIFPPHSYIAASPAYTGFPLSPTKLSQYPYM
How it was run: as §1

ZAK = molecular target: T1, ZAK (Homo sapiens, UniProt Q9NYL2)
T1 construct: gene MAP3K20
How it was run: as §1

PIK3CA(I800L) = PIK3CA(I800L) (Homo sapiens, UniProt P42336, I800L)
How it was run: as §1

ACVR1B = ACVR1B (Homo sapiens, UniProt P36896)
How it was run: as §1

RET(V804M) = RET(V804M) (Homo sapiens, UniProt P07949, V804M)
How it was run: as §1

IRAK4 = IRAK4 (Homo sapiens, UniProt Q9NWZ3)
How it was run: as §1

CSNK1E = CSNK1E (Homo sapiens, UniProt P49674)
How it was run: as §1

CHEK2 = CHEK2 (Homo sapiens, UniProt O96017)
CHEK2, sequence (O96017 whole entry): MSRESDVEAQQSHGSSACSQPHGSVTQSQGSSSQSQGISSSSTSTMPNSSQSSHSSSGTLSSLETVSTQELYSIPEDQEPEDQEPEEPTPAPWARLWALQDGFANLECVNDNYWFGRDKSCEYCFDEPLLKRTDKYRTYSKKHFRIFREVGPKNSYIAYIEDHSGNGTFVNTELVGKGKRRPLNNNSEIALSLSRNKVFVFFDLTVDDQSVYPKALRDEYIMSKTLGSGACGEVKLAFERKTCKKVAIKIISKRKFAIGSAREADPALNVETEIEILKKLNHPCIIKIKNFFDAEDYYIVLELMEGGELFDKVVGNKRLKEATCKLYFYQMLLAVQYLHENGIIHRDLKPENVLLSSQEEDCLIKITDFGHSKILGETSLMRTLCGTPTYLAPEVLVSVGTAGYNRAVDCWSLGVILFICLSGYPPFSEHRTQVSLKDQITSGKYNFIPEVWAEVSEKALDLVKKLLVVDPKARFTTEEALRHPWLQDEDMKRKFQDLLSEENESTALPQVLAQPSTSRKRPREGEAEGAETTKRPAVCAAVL
How it was run: as §1

FLT3-autoinhibited = FLT3-autoinhibited (Homo sapiens, UniProt P36888)
How it was run: as §1

MAP3K1 = MAP3K1 (Homo sapiens, UniProt Q13233)
MAP3K1, sequence (Q13233 whole entry): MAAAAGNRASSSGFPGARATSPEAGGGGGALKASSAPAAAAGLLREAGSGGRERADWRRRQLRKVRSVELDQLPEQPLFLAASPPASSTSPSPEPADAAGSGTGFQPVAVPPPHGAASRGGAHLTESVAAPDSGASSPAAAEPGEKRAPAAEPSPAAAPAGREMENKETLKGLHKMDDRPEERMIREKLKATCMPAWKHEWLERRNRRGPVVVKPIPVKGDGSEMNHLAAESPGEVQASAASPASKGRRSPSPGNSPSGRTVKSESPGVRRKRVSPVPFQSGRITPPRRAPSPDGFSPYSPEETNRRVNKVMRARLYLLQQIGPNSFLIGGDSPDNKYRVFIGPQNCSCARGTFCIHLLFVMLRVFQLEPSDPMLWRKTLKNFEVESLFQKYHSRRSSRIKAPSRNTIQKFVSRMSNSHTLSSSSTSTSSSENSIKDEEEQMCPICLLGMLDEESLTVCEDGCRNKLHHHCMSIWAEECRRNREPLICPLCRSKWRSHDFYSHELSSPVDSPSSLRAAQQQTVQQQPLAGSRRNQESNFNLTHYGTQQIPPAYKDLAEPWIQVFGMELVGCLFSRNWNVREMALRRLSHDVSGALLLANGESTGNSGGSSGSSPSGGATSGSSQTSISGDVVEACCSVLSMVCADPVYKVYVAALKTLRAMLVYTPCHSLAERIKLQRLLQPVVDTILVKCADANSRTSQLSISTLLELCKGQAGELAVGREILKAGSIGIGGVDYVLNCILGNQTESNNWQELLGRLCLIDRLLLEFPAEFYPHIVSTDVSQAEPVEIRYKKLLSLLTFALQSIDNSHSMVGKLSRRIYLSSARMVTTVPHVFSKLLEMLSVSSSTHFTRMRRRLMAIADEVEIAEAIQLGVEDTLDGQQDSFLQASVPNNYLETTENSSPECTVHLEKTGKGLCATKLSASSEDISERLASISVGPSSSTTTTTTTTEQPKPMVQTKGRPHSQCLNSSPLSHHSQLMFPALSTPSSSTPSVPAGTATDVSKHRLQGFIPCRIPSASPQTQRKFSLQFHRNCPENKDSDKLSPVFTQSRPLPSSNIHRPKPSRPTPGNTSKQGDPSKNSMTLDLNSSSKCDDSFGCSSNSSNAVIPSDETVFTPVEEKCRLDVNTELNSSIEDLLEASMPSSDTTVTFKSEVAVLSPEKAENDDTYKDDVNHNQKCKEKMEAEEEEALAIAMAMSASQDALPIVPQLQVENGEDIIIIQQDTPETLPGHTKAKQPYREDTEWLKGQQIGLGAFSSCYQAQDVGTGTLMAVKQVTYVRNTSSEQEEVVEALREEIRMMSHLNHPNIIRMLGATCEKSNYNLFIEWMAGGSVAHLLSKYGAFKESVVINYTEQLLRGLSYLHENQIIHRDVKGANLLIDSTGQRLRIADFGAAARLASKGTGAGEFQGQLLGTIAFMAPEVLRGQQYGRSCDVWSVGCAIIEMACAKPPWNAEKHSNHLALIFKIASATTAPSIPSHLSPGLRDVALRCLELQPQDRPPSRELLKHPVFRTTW
How it was run: as §1

DRAK1 = molecular target: T2, DRAK1 (Homo sapiens, UniProt Q9UEE5)
T2 construct: gene STK17A
How it was run: as §1

LATS1 = LATS1 (Homo sapiens, UniProt O95835)
LATS1, sequence (O95835 whole entry): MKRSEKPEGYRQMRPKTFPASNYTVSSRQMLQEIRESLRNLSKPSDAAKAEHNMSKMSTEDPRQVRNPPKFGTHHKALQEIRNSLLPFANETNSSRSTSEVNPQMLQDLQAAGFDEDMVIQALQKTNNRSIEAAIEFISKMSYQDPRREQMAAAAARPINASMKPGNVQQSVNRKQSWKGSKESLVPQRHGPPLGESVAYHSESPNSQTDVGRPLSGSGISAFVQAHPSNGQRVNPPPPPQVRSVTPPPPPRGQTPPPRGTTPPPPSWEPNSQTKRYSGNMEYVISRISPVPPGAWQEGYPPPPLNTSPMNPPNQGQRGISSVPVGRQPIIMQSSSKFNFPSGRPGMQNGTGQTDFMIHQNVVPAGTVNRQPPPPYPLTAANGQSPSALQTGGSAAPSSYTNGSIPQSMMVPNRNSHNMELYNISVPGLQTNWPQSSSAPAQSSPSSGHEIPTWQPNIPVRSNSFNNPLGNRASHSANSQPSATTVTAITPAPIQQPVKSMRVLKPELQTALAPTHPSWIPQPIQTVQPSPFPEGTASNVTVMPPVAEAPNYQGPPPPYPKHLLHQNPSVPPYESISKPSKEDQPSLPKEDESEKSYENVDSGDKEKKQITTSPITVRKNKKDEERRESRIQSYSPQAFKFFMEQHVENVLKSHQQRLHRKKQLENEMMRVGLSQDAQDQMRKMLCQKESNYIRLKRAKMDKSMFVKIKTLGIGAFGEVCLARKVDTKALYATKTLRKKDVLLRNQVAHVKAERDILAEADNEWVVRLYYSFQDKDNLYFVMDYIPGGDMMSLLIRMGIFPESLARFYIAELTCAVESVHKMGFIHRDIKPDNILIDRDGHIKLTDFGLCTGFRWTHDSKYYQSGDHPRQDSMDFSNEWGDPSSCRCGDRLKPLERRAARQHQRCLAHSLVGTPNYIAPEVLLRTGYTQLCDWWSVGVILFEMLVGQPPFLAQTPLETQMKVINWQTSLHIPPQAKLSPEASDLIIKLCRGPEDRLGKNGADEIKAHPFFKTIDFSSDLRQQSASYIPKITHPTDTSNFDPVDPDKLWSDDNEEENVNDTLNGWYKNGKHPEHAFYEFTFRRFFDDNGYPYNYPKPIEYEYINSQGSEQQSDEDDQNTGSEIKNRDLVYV
How it was run: as §1

NEK10 = NEK10 (Homo sapiens, UniProt Q6ZWH5)
How it was run: as §1

EPHA8 = EPHA8 (Homo sapiens, UniProt P29322)
How it was run: as §1

PRKCE = PRKCE (Homo sapiens, UniProt Q02156)
How it was run: as §1

STK33 = STK33 (Homo sapiens, UniProt Q9BYT3)
How it was run: as §1

GRK7 = GRK7 (Homo sapiens, UniProt Q8WTQ7)
How it was run: as §1

PIK3CA(E545A) = PIK3CA(E545A) (Homo sapiens, UniProt P42336, E545A)
How it was run: as §1

remaining binding at 100 µM (ROCK2): 66%
remaining binding at 100 µM (AURKA): 81%
remaining binding at 100 µM (WEE2): 88%
remaining binding at 100 µM (LIMK1): 89%
remaining binding at 100 µM (HIPK3): 51%
remaining binding at 100 µM (ZAK): 72%
remaining binding at 100 µM (PIK3CA(I800L)): 95%
remaining binding at 100 µM (ACVR1B): 98%
remaining binding at 100 µM (RET(V804M)): 96%
remaining binding at 100 µM (IRAK4): 68%
remaining binding at 100 µM (CSNK1E): 90%
remaining binding at 100 µM (CHEK2): 99%
remaining binding at 100 µM (FLT3-autoinhibited): 67%
remaining binding at 100 µM (MAP3K1): 60%
remaining binding at 100 µM (DRAK1): 100%
remaining binding at 100 µM (LATS1): 91%
remaining binding at 100 µM (NEK10): 71%
remaining binding at 100 µM (EPHA8): 91%
remaining binding at 100 µM (PRKCE): 94%
remaining binding at 100 µM (STK33): 100%
remaining binding at 100 µM (GRK7): 75%
remaining binding at 100 µM (PIK3CA(E545A)): 70%
Structure (SMILES): C=C(C)[C@H]1CC=C(C)C(=O)C1 [S-carvone]
